Assays:
[1] = biological target: T1, Oxysterols receptor LXR-beta (Homo sapiens, UniProt P55055); assay type: functional, cell-based, CHO
T1 sequence (P55055 whole entry): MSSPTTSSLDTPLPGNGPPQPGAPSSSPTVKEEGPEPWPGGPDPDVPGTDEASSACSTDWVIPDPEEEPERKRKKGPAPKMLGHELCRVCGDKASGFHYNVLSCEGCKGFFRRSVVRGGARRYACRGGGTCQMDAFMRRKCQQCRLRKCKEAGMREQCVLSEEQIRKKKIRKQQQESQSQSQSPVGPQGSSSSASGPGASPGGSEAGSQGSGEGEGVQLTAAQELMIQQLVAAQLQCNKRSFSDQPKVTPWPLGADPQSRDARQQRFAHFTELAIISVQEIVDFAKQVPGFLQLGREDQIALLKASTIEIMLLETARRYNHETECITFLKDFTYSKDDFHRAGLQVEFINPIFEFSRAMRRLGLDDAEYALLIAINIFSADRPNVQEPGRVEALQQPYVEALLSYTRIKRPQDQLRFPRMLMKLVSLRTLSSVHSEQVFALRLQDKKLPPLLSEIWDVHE

[2] = biological target: T2, Peroxisome proliferator-activated receptor alpha (Homo sapiens, UniProt Q07869)
T2 sequence (Q07869 whole entry): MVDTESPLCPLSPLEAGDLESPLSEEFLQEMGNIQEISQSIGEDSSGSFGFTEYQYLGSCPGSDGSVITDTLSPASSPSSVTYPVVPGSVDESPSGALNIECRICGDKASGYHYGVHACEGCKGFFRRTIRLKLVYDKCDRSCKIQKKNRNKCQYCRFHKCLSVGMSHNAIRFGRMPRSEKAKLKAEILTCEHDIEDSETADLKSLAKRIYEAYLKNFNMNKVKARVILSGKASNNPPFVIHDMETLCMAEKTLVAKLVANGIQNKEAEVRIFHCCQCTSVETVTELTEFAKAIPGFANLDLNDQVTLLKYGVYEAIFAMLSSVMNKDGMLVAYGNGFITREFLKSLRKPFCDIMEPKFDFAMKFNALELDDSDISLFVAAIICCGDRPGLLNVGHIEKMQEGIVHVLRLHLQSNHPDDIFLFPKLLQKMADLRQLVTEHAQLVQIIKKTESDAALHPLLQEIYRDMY

[3] = biological target: T1, Oxysterols receptor LXR-beta
[4] = biological target: T3, Peroxisome proliferator-activated receptor delta (Homo sapiens, UniProt Q03181)
T3 sequence (Q03181 whole entry): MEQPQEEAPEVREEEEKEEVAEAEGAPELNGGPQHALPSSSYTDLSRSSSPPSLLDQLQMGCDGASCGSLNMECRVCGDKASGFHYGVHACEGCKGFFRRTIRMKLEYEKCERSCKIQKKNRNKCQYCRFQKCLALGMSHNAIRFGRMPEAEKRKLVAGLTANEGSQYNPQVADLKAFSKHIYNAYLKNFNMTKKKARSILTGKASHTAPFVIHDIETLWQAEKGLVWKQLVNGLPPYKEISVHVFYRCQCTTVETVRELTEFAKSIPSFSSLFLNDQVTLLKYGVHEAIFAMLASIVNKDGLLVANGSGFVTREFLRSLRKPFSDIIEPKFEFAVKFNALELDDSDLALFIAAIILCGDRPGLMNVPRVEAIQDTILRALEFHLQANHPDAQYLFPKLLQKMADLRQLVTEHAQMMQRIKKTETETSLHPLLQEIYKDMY

[5] = biological target: T4, Oxysterols receptor LXR-alpha (Homo sapiens, UniProt Q13133)
T4 sequence (Q13133 whole entry): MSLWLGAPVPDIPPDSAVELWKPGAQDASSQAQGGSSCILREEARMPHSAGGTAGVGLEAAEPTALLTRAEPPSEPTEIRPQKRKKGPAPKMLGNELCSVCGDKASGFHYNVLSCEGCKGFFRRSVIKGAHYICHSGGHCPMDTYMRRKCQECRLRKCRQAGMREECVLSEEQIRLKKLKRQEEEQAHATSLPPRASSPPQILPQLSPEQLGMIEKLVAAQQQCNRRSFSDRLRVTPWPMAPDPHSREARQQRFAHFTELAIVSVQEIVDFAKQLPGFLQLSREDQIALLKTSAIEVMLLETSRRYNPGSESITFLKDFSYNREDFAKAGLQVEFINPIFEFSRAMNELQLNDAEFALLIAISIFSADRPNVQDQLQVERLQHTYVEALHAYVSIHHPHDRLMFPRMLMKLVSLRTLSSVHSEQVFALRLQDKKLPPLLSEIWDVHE

[6] = biological target: T4, Oxysterols receptor LXR-alpha; assay type: functional, cell-based, CHO
in vivo [7] = conditions: mouse, iv, 0.5 mg/kg
in vivo [8] = conditions: mouse
Mus musculus = species on record: Mus musculus; conditions: in vivo
in vivo [9] = conditions: mouse, iv, 0.5 mg/kg; remark: listed apart in the source
[10] = biological target: T5, Nuclear receptor subfamily 1 group I member 2 (Homo sapiens, UniProt O75469)
T5 sequence (O75469 whole entry): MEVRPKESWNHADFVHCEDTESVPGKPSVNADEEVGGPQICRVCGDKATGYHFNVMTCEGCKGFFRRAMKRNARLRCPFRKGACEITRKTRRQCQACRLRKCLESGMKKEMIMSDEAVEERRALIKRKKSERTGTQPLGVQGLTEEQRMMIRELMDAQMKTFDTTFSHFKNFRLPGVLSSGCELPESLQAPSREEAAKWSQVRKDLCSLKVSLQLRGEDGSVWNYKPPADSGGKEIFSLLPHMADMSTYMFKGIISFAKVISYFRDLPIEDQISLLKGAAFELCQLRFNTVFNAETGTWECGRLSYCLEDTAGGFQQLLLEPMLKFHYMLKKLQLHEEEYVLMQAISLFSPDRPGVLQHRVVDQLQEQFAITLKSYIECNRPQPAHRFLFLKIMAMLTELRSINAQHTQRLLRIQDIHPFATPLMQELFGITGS

| EC50 [1] | IC50 [2] | IC50 [3] | IC50 [4] | IC50 [5] | EC50 [6] | Vd (in vivo [7]) | half-life (in vivo [8]) | AUC (Mus musculus) | clearance (in vivo [9]) | IC50 [10] | Structure (SMILES) |
| --- | --- | --- | --- | --- | --- | --- | --- | --- | --- | --- | --- |
| 360 nM | 310 nM | 25 nM | 310 nM | 18 nM | 450 nM | – | – | – | – | – | CCCc1c(OCCCN(C)c2ccc(CC(=O)O)cc2)ccc2c(C(F)(F)F)noc12 |
| – | – | – | – | 6400 nM | – | – | – | – | – | – | CCCc1c(OCCCN(C(C)=O)c2ccc(CC(=O)O)cc2)ccc2c(C(F)(F)F)noc12 |
| 7700 nM | 16 nM | 89 nM | 88 nM | 68 nM | 8000 nM | – | – | – | – | – | CCCc1c(OCCCNc2ccc(CC(=O)O)cc2)ccc2c(C(F)(F)F)noc12 |
| 5100 nM | – | 190 nM | – | 79 nM | 6000 nM | – | – | – | – | – | CCCc1c(OCCCN(C)c2ccc(C(=O)O)cc2)ccc2c(C(F)(F)F)noc12 |
| – | – | 630 nM | – | 105 nM | 5000 nM | – | – | – | – | – | CCCc1c(OCCCN(C)c2ccc(CC(=O)O)cn2)ccc2c(C(F)(F)F)noc12 |
| – | – | 428 nM | – | 372 nM | – | – | – | – | – | – | CCCc1c(OCCCN(C)c2ccccc2)ccc2c(C(F)(F)F)noc12 |
| 4400 nM | – | 700 nM | – | 97 nM | 3000 nM | – | – | – | – | – | CCCc1c(OCCCN2C(=O)Cc3cc(C(=O)O)ccc32)ccc2c(C(F)(F)F)noc12 |
| 3500 nM | 1500 nM | 98 nM | 93 nM | 102 nM | 2600 nM | – | – | – | – | – | CCCc1c(OCCCN(C)c2cccc(CC(=O)O)c2)ccc2c(C(F)(F)F)noc12 |
| 140 nM | – | 13 nM | – | 19 nM | 180 nM | 2.9 L/kg | 1 h | 1 µM·kg·h/mg | 46 mL/min/kg | > 10000 nM | CCCc1c(OCCCN2C(=O)Cc3cc(CC(=O)O)ccc32)ccc2c(C(F)(F)F)noc12 |
| 700 nM | 450 nM | 6 nM | 70 nM | 18 nM | 820 nM | – | – | – | – | – | CCCc1c(OCCCn2ccc3cc(CCC(=O)O)ccc32)ccc2c(C(F)(F)F)noc12 |
| 1700 nM | 4400 nM | 350 nM | – | 410 nM | 2300 nM | – | – | – | – | – | CCCc1c(OCCCn2nnc3cc(CC(=O)O)ccc32)ccc2c(C(F)(F)F)noc12 |
| – | 2600 nM | 140 nM | 8600 nM | 110 nM | – | – | – | – | – | – | CCCc1c(OCCCN(CC)c2ccc(CC(=O)O)cc2)ccc2c(C(F)(F)F)noc12 |
| 124 nM | – | 10 nM | 1400 nM | 12 nM | 170 nM | – | – | – | – | – | CCCc1c(OCCCN(C)c2ccc(CC(=O)O)c(Cl)c2)ccc2c(C(F)(F)F)noc12 |
| – | 600 nM | 320 nM | – | 580 nM | – | – | – | – | – | – | CCCc1c(OCCCN(C)c2ccc(CC(=O)O)cc2C)ccc2c(C(F)(F)F)noc12 |
| – | – | – | – | 6400 nM | – | – | – | – | – | – | CCCc1c(OCCCN(C=O)c2ccc(CC(=O)O)cc2)ccc2c(C(F)(F)F)noc12 |
| – | – | 970 nM | – | 530 nM | – | – | – | – | – | – | CCCc1c(OCCCCc2ccc(CC(=O)O)cc2)ccc2c(C(F)(F)F)noc12 |
| 8600 nM | – | 410 nM | 1800 nM | 180 nM | – | – | – | – | – | – | CCCc1c(OCCCn2cnc3cc(CC(=O)O)ccc32)ccc2c(C(F)(F)F)noc12 |
| 9700 nM | 230 nM | 65 nM | – | 39 nM | – | – | – | – | – | – | CCCc1c(OCCCOc2ccc(CC(=O)O)cc2Cl)ccc2c(C(F)(F)F)noc12 |
| 580 nM | 780 nM | 87 nM | – | 73 nM | 480 nM | – | – | – | – | – | CCCc1c(OCCCn2ncc3cc(CC(=O)O)ccc32)ccc2c(C(F)(F)F)noc12 |
| – | 19 nM | 100 nM | 8 nM | 730 nM | – | – | – | – | – | – | CCCc1c(OCCCOc2ccc(CC(=O)O)cc2)ccc2c(C(F)(F)F)noc12 |
| 470 nM | – | 55 nM | – | 26 nM | 620 nM | – | – | – | – | – | CCCc1c(OCCCN(C)c2ncc(CC(=O)O)cn2)ccc2c(C(F)(F)F)noc12 |
| – | 280 nM | – | 4 nM | 32 nM | 5900 nM | – | – | – | – | – | CCCc1c(OCCCSc2ccc(CC(=O)O)cc2Cl)ccc2c(C(F)(F)F)noc12 |
| 2800 nM | 8300 nM | 199 nM | – | 72 nM | 1900 nM | – | – | – | – | – | CCCc1c(OCCCn2ccc3cc(C(=O)O)ccc32)ccc2c(C(F)(F)F)noc12 |
| 150 nM | – | 40 nM | – | 90 nM | 540 nM | 2.8 L/kg | 2.1 h | 7.5 µM·kg·h/mg | 17 mL/min/kg | – | CCCc1c(OCCCN(C)c2cnc(CC(=O)O)cn2)ccc2c(C(F)(F)F)noc12 |
| 650 nM | – | 100 nM | – | 67 nM | 1100 nM | 1.2 L/kg | 1.2 h | 3.1 µM·kg·h/mg | 13 mL/min/kg | – | CCCc1c(OCCCN(C)c2ncc(CC(=O)O)s2)ccc2c(C(F)(F)F)noc12 |
| 1300 nM | 140 nM | 18 nM | 540 nM | 60 nM | 3600 nM | – | – | – | – | – | CCCc1c(OCCCN(C)c2ccc(CC(=O)O)c(C(F)(F)F)c2)ccc2c(C(F)(F)F)noc12 |
| – | – | 170 nM | 49 nM | 630 nM | – | – | – | – | – | – | CCCc1c(OCCCN(C)c2ccc(CC(=O)O)cc2Cl)ccc2c(C(F)(F)F)noc12 |
| 450 nM | 400 nM | 16 nM | – | 16 nM | 590 nM | 2.7 L/kg | 3.9 h | 2.7 µM·kg·h/mg | 18 mL/min/kg | – | CCCc1c(OCCCn2ccc3cc(CC(=O)O)ccc32)ccc2c(C(F)(F)F)noc12 |
| 303 nM | 870 nM | 26 nM | 150 nM | 117 nM | 1300 nM | – | – | – | – | – | CCCc1c(OCCCN(C)c2ccc(CC(=O)O)c(C)c2)ccc2c(C(F)(F)F)noc12 |
| – | – | – | – | – | – | 1.2 L/kg | 3.4 h | 2 µM·kg·h/mg | 8 mL/min/kg | – | O=C(O)Cc1cccc(OCCCN(Cc2cccc(C(F)(F)F)c2Cl)CC(c2ccccc2)c2ccccc2)c1 |

From ChEMBL document CHEMBL1148661, “SAR studies: designing potent and selective LXR agonists” (Bioorg Med Chem Lett, 2006)
